# Results from PubChem BioAssay (NCI).
#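 Method: 48-hour compound exposure of cells in 96-well plates, five concentrations, linear interpolation of endpoints. GI50 is the concentration that inhibits growth by half. At the TGI there is no net growth.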
# Key:
# Assay in all cases: DTP human tumour cell line panel, 48 h
# SK-MEL-28 melanoma = test system: SK-MEL-28 melanoma
# HL-60(TB) leukemia = test system: HL-60(TB) leukemia
# CCRF-CEM leukemia = test system: CCRF-CEM leukemia
# UACC-62 melanoma = test system: UACC-62 melanoma
# BT-549 breast = test system: BT-549 breast
# HOP-92 NSCLC = test system: HOP-92 NSCLC
# KM12 colon = test system: KM12 colon
# DU-145 prostate = test system: DU-145 prostate
# NCI-H226 lung = test system: NCI-H226 lung
# OVCAR-4 ovarian = test system: OVCAR-4 ovarian
# OVCAR-3 ovarian = test system: OVCAR-3 ovarian
# SK-OV-3 ovarian = test system: SK-OV-3 ovarian
# HCC-2998 colon = test system: HCC-2998 colon
# RPMI-8226 leukemia = test system: RPMI-8226 leukemia
# EKVX NSCLC = test system: EKVX NSCLC
# MCF7 breast = test system: MCF7 breast
# NCI-H460 lung = test system: NCI-H460 lung
# UACC-257 melanoma = test system: UACC-257 melanoma
# LOX IMVI melanoma = test system: LOX IMVI melanoma
# MDA-MB-435 = test system: MDA-MB-435
# A549 NSCLC = test system: A549 NSCLC
# OVCAR-5 ovarian = test system: OVCAR-5 ovarian
# PC-3 prostate = test system: PC-3 prostate
# SR leukemia = test system: SR leukemia
# HT29 colon = test system: HT29 colon
# SNB-75 CNS = test system: SNB-75 CNS
# U251 CNS = test system: U251 CNS
# IGROV1 ovarian = test system: IGROV1 ovarian
# SF-268 CNS = test system: SF-268 CNS
# HCT-116 colon = test system: HCT-116 colon
# UO-31 renal = test system: UO-31 renal
# SF-539 CNS = test system: SF-539 CNS
# HCT-15 colon = test system: HCT-15 colon
# A498 renal = test system: A498 renal
# SNB-19 CNS = test system: SNB-19 CNS
# SW-620 colon = test system: SW-620 colon
# RXF 393 renal = test system: RXF 393 renal
# CAKI-1 renal = test system: CAKI-1 renal
# M14 melanoma = test system: M14 melanoma
# 786-0 renal = test system: 786-0 renal
# SN12C renal = test system: SN12C renal
# MOLT-4 leukemia = test system: MOLT-4 leukemia
# NCI-H522 lung = test system: NCI-H522 lung
# TK-10 renal = test system: TK-10 renal
# SF-295 CNS = test system: SF-295 CNS
# ACHN renal = test system: ACHN renal
# SK-MEL-5 melanoma = test system: SK-MEL-5 melanoma
# HOP-62 NSCLC = test system: HOP-62 NSCLC
# T-47D breast = test system: T-47D breast
# SK-MEL-2 melanoma = test system: SK-MEL-2 melanoma
# COLO 205 colon = test system: COLO 205 colon
# HS 578T breast = test system: HS 578T breast
# MDA-MB-231 breast = test system: MDA-MB-231 breast
# MALME-3M melanoma = test system: MALME-3M melanoma
smiles,measurement,setting,value
CCN(CC)c1ccc(NC2=C(Cl)C(=O)c3nc(C)ccc3C2=O)cc1,GI50,SK-MEL-28 melanoma,2.04 µM
same,TGI,SK-MEL-28 melanoma,3.68 µM
same,GI50,HL-60(TB) leukemia,1.55 µM
same,TGI,HL-60(TB) leukemia,4.1 µM
same,GI50,CCRF-CEM leukemia,2.27 µM
same,TGI,CCRF-CEM leukemia,6.43 µM
same,GI50,UACC-62 melanoma,1.63 µM
same,TGI,UACC-62 melanoma,3.13 µM
same,GI50,BT-549 breast,1.58 µM
same,TGI,BT-549 breast,2.96 µM
same,GI50,HOP-92 NSCLC,1.71 µM
same,TGI,HOP-92 NSCLC,3.41 µM
same,GI50,KM12 colon,2.42 µM
same,TGI,KM12 colon,5.88 µM
same,GI50,DU-145 prostate,1.93 µM
same,TGI,DU-145 prostate,3.51 µM
same,GI50,NCI-H226 lung,2.27 µM
same,TGI,NCI-H226 lung,5.6 µM
same,GI50,OVCAR-4 ovarian,1.82 µM
same,TGI,OVCAR-4 ovarian,3.52 µM
same,GI50,OVCAR-3 ovarian,1.81 µM
same,TGI,OVCAR-3 ovarian,3.3 µM
same,GI50,SK-OV-3 ovarian,2.2 µM
same,TGI,SK-OV-3 ovarian,6.57 µM
same,GI50,HCC-2998 colon,1.89 µM
same,TGI,HCC-2998 colon,3.55 µM
same,GI50,RPMI-8226 leukemia,2.52 µM
same,TGI,RPMI-8226 leukemia,6.29 µM
same,GI50,EKVX NSCLC,1.59 µM
same,TGI,EKVX NSCLC,3.33 µM
same,GI50,MCF7 breast,1.94 µM
same,TGI,MCF7 breast,5.04 µM
same,GI50,NCI-H460 lung,5.38 µM
same,TGI,NCI-H460 lung,23.2 µM
same,GI50,UACC-257 melanoma,1.6 µM
same,TGI,UACC-257 melanoma,3 µM
same,GI50,LOX IMVI melanoma,1.67 µM
same,TGI,LOX IMVI melanoma,3.5 µM
same,GI50,MDA-MB-435,1.99 µM
same,TGI,MDA-MB-435,3.87 µM
same,GI50,A549 NSCLC,2.61 µM
same,TGI,A549 NSCLC,7.05 µM
same,GI50,OVCAR-5 ovarian,2.12 µM
same,TGI,OVCAR-5 ovarian,4.1 µM
same,GI50,PC-3 prostate,1.8 µM
same,TGI,PC-3 prostate,3.66 µM
same,GI50,SR leukemia,0.643 µM
same,TGI,SR leukemia,3.67 µM
same,GI50,HT29 colon,2.66 µM
same,TGI,HT29 colon,6.76 µM
same,GI50,SNB-75 CNS,1.98 µM
same,TGI,SNB-75 CNS,5.03 µM
same,GI50,U251 CNS,1.87 µM
same,TGI,U251 CNS,3.57 µM
same,GI50,IGROV1 ovarian,2.11 µM
same,TGI,IGROV1 ovarian,4.31 µM
same,GI50,SF-268 CNS,1.8 µM
same,TGI,SF-268 CNS,3.53 µM
same,GI50,HCT-116 colon,1.75 µM
same,TGI,HCT-116 colon,3.63 µM
same,GI50,UO-31 renal,1.54 µM
same,TGI,UO-31 renal,2.93 µM
same,GI50,SF-539 CNS,1.82 µM
same,TGI,SF-539 CNS,3.38 µM
same,GI50,HCT-15 colon,1.63 µM
same,TGI,HCT-15 colon,3.34 µM
same,GI50,A498 renal,11.9 µM
same,TGI,A498 renal,24.5 µM
same,GI50,SNB-19 CNS,1.77 µM
same,TGI,SNB-19 CNS,3.35 µM
same,GI50,SW-620 colon,2.18 µM
same,TGI,SW-620 colon,4.74 µM
same,GI50,RXF 393 renal,1.63 µM
same,TGI,RXF 393 renal,3.02 µM
same,GI50,CAKI-1 renal,1.61 µM
same,TGI,CAKI-1 renal,3.16 µM
same,GI50,M14 melanoma,1.73 µM
same,TGI,M14 melanoma,3.3 µM
same,GI50,786-0 renal,1.87 µM
same,TGI,786-0 renal,3.55 µM
same,GI50,SN12C renal,1.95 µM
same,TGI,SN12C renal,4.35 µM
same,GI50,MOLT-4 leukemia,1.91 µM
same,TGI,MOLT-4 leukemia,5.43 µM
same,GI50,NCI-H522 lung,1.81 µM
same,TGI,NCI-H522 lung,3.92 µM
same,GI50,TK-10 renal,2.05 µM
same,TGI,TK-10 renal,3.51 µM
same,GI50,SF-295 CNS,1.97 µM
same,TGI,SF-295 CNS,4.23 µM
same,GI50,ACHN renal,1.93 µM
same,TGI,ACHN renal,3.43 µM
same,GI50,SK-MEL-5 melanoma,1.75 µM
same,TGI,SK-MEL-5 melanoma,3.22 µM
same,GI50,HOP-62 NSCLC,3.21 µM
same,TGI,HOP-62 NSCLC,12.2 µM
same,GI50,T-47D breast,1.96 µM
same,TGI,T-47D breast,5.46 µM
same,GI50,SK-MEL-2 melanoma,1.85 µM
same,TGI,SK-MEL-2 melanoma,3.48 µM
same,GI50,COLO 205 colon,1.92 µM
same,TGI,COLO 205 colon,3.82 µM
same,GI50,HS 578T breast,2.38 µM
same,TGI,HS 578T breast,6.37 µM
same,GI50,MDA-MB-231 breast,1.89 µM
same,TGI,MDA-MB-231 breast,3.69 µM
same,GI50,MALME-3M melanoma,2.18 µM
same,TGI,MALME-3M melanoma,4.13 µM
